Assays:
[1] = tested on: CD8+ CAR-T cells; assay: Glycolytic metabolism (ECAR, Seahorse) of CD8+ CAR-T cells expanded with inhibitor; assay type: cell-based, human; conditions: CD8+ CAR-T cells expanded with 1 μM Compound 63; 3 donors
Protocol: Separate compositions of CD4+ and CD8+ cells were isolated from three human donors, activated and transduced with a viral vector encoding an anti-CD19 CAR substantially as described in Example 2. After transduction, the CD4+ and CD8+ T cells derived from each donor were separately incubated for 8 days in the presence of a mTOR kinase inhibitor to expand T cells substantially as described in Example 2, except in the presence of 200 nM PI-103, 1 μM Compound 63, or with DMSO vehicle or media only controls. CD4+ and CD8+ T cells from each donor were then separately harvested, formulated, and cryofrozen. […] Functional activities of the generated anti-CD19 CAR-T cell compositions were assessed.
Changes in cellular glycolytic metabolism in response to T cell receptor (TCR) stimulation were measured in CD8+ CAR-T cells from the generated anti-CD19 CAR-T cell composition prior to combining with CD4+ T cells. Glycolytic metabolism was assessed by measuring the extracellular acidification rate (ECAR) in CD8+ CAR-T cells in real time with an extracellular flux bioanalyzer (Seahorse Bioanalyzer, Agilent Technologies). […] Area under the curve (AUC) for the ECAR rates (mpH/min) from 0 to 76 minutes of the assay and maximal ECAR glycolytic burst ratio relative to media controls (n=3 donors) were determined.

[2] = tested on: CD4+ and/or CD8+ T cells; assay: RNA-Seq gene expression of CAR-T cells expanded with inhibitor; assay type: cell-based, human; conditions: FDR≤10%
Protocol: Gene expression among cells of the generated anti-CD19 CAR-T cell compositions described in Example 2, generated by expanding the cells in the presence of PI-103, Compound 63, DMSO vehicle, or media only, was assessed by RNA sequencing (RNA-Seq). RNA was extracted from compositions generated from three donors under each expansion condition and an assessment of the whole-transcriptome was performed by RNA-Seq. FPKM and FPKQ values were determined; FPKQ values were log-transformed (log 2). Gene expression was determined by comparing expression profiles of CD4+, CD8+ or combined CD4+/CD8+ cells among cells of the generated anti-CD19 CAR-T cell compositions that were expanded in the presence of media only, PI-103, or Compound 63, as compared to cells expanded with DMSO vehicle. Gene products were identified that were different among each groups based on analysis of a volcano plot by imposing cutoff of FDR≤10% between the two conditions.

[3] = tested on: caspase 3; assay: Intracellular caspase 3 in thawed CAR-T cells prepared with inhibitor; assay type: cell-based, human; conditions: thawed CAR-T cells prepared with 1 μM Compound 63 vs DMSO; three donors
Protocol: (§1) Separate compositions of CD4+ and CD8+ cells were selected from isolated PBMCs from a leukapheresis sample from the same human donor by immunoaffinity based selection, and the selected cell compositions were cryofrozen. The separate compositions of CD4+ and CD8+ T cells were subsequently thawed and mixed at a ratio of 1:1 of viable CD4+ T cells to viable CD8+ T cells. In this study, the mixed CD4+ and CD8+ cell populations were incubated in the presence of Compound 63, PI103 or no inhibitor (DMSO vehicle control) beginning at the initiation of stimulation. In more detail, the mixed CD4+ and CD8+ T cell composition was stimulated (in the presence or absence of an inhibitor, as indicated) in the presence of paramagnetic polystyrene-coated beads with attached anti-CD3 and anti-CD28 antibodies for between 18 to 30 hours, and were then transduced with a lentiviral vector encoding an anti-CD19 CAR. The CAR contained an scFv antigen-binding domain specific for CD19 (derived from FMC63), a CD28 transmembrane region, a 4-1BB costimulatory signaling region, and a CD3-zeta derived intracellular signaling domain. The cells were then expanded in the presence of cytokines typically for approximately 6-7 days. […]
The cells were assessed by flow cytometry for levels of the cell surface markers and levels of pro-apoptotic marker, intracellular caspase 3.

[4] = tested on: CAR-T cells; assay: Expansion of CAR-T cells on CAR-specific beads for 14 days (mixed CD4+/CD8+ process); assay type: cell-based, human; conditions: CAR-T cells prepared with 2 μM PI103 or 1 μM Compound 63
Protocol: as §1, with “domain.” for “domain. The cells were then expanded in the presence of cytokines typically for approximately 6-7 days.”
Functional attributes of the generated CAR-T cells were assessed in a serial stimulation assay by incubation of the generated CAR-T cells antibody conjugated to beads. […] Every 3-4 days, T cells were, counted.

[5] = tested on: CD19-expressing target cells; assay: Cytolytic activity of CAR-T cells (mixed CD4+/CD8+ process); assay type: cell-based, human; conditions: CAR-T cells prepared with 2 μM PI103 or 1 μM Compound 63; freshly thawed or day 14; 3:1 effector to target
Protocol: as §1, with “CAR.” for “CAR. The CAR contained an scFv antigen-binding domain specific for CD19 (derived from FMC63), a CD28 transmembrane region, a 4-1BB costimulatory signaling region, and a CD3-zeta derived intracellular signaling domain. The cells were then expanded in the presence of cytokines typically for approximately 6-7 days.”
Cytolytic activity of the generated CAR-T cells was assessed by culturing the generated CAR-T cells, either freshly thawed or at day 14 of restimulation from above, with CD19-expressing target cells at a 3:1 effector to target ratio. Target cell death was quantitated over time. The tumor cell growth area under the curve (AUC) of signal over time for each concentration was determined. A killing index was calculated as the inverse of the area under the tumor cell growth curve (1/AUC).

[6] = tested on: Raji cells; assay: Raji tumor xenograft model, CAR-T cells prepared as in Example 7; assay type: in vivo, nod scid gamma (NSG) immunodeficient mice
Protocol: Anti-tumor effects of anti-CD19 CAR-T cell compositions prepared in the presence DMSO, PI-103 or Compound 63 as described in Example 7 were assessed in vivo. The tumor xenograft mouse model was generated by implanting nod scid gamma (NSG) immunodeficient mice with 0.5×10^6 Raji cells (an immortalized human B lymphocyte tumor cell line that expresses CD19), which were allowed to engraft. The Raji cells were transfected with firefly luciferase to facilitate measurement of tumor burden by bioluminescence imaging. After seven days, mice either received no treatment, or treatment with a low dose (0.25×10^6) or a high dose (1.0×10^6) of anti-CD19 CAR+ T cells prepared in the presence of DMSO (vehicle) or DMSO and a mTOR kinase inhibitor. Tumor burden and mortality were assessed weekly.

Row | Structure (SMILES) | glycolytic burst upon TCR stimulation (ECAR AUC, ECAR ratio) relative to media control [1] | gene expression (RNA-Seq) compared to cells expanded with DMSO vehicle [2] | levels of pro-apoptotic marker intracellular caspase 3 [3] | expansion after restimulation with CAR-specific beads [4] | target cell killing (killing index 1/AUC) compared to CAR-T cells prepared with DMSO [5] | in vivo anti-tumor responses compared to absence of inhibitor (DMSO vehicle) ([6]; low (0.25×10^6) or high (1.0×10^6) dose of CAR+ T cells prepared with the inhibitor) | anti-tumor effects compared to cells produced in the absence of inhibitor (DMSO vehicle) ([6]; CAR-T cells generated from another donor)
1 | CC(C)c1ccccc1-n1c(=O)[nH]c2c(C(N)=O)nc(-c3cccc(O)c3)nc21 [Compound 63, 2-(3-Hydroxyphenyl)-9-(2-isopropylphenyl)-8-oxo-8,9-dihydro-7H-purine-6-carboxamide] | trend towards enhanced glycolytic burst | significantly changed gene expression | decreased levels | improved expansion after restimulation | improved target cell killing | improvement in vivo anti-tumor responses | –
2 | Oc1cccc(-c2nc(N3CCOCC3)c3oc4ncccc4c3n2)c1 [PI-103, reference compound] | – | significantly changed gene expression | – | improved expansion after restimulation | improved target cell killing | – | comparable anti-tumor effects

Source: patent US20210254000A1, “PROCESS FOR PRODUCING A T CELL COMPOSITION” (Juno Therapeutics, Inc., priority 2017, published 2021)
